Source: the supplement of paper PMC10307832

Legend:
Experiment in all cases: relative viability (nuclei count vs DMSO), 5 days (fraction); higher = more cells survive
VE-821 + Lapatinib = compound: CS(=O)(=O)c1ccc(-c2cnc(N)c(C(=O)Nc3ccccc3)n2)cc1 [VE-821] + CS(=O)(=O)CCNCc1ccc(-c2ccc3ncnc(Nc4ccc(OCc5cccc(F)c5)c(Cl)c4)c3c2)o1 [Lapatinib] (partner 2 µM)
Summary of the method: (§1)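 Lung cancer cell lines in 1536-well plates got either a single drug or a fixed anchor-drug dose together with five library-drug doses (not always all listed) in √10 steps, by pin tool, on the day after seeding. Nuclei were counted after 5 days, and relative viability is the treated-to-vehicle ratio of nuclei counts. Values are medians of duplicate plates.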

Ruxolitinib + Trametinib = compound: N#CC[C@H](C1CCCC1)n1cc(-c2ncnc3[nH]ccc23)cn1 [Ruxolitinib] + CC(=O)Nc1cccc(-n2c(=O)n(C3CC3)c(=O)c3c(Nc4ccc(I)cc4F)n(C)c(=O)c(C)c32)c1 [Trametinib] (partner 0.02 µM)
Summary of the method: as §1

VE-821 + AZD7762 = compound: CS(=O)(=O)c1ccc(-c2cnc(N)c(C(=O)Nc3ccccc3)n2)cc1 [VE-821] + NC(=O)Nc1cc(-c2cccc(F)c2)sc1C(=O)N[C@H]1CCCNC1 [AZD7762] (partner 0.2 µM)
Summary of the method: as §1

Ruxolitinib + Olaparib = compound: N#CC[C@H](C1CCCC1)n1cc(-c2ncnc3[nH]ccc23)cn1 [Ruxolitinib] + O=C(c1cc(Cc2n[nH]c(=O)c3ccccc23)ccc1F)N1CCN(C(=O)C2CC2)CC1 [Olaparib] (partner 8 µM)
Summary of the method: as §1

Row | Cell Line | relative viability (VE-821 + Lapatinib; first compound 0.08 µM) | relative viability (VE-821 + Lapatinib; first compound 0.253 µM) | relative viability (VE-821 + Lapatinib; first compound 0.8 µM) | relative viability (VE-821 + Lapatinib; first compound 2.53 µM) | relative viability (VE-821 + Lapatinib; first compound 8 µM) | relative viability (Ruxolitinib + Trametinib; first compound 0.08 µM) | relative viability (Ruxolitinib + Trametinib; first compound 0.253 µM) | relative viability (Ruxolitinib + Trametinib; first compound 0.8 µM) | relative viability (Ruxolitinib + Trametinib; first compound 2.53 µM) | relative viability (Ruxolitinib + Trametinib; first compound 8 µM) | relative viability (VE-821 + AZD7762; first compound 0.08 µM) | relative viability (VE-821 + AZD7762; first compound 0.253 µM) | relative viability (VE-821 + AZD7762; first compound 0.8 µM) | relative viability (VE-821 + AZD7762; first compound 2.53 µM) | relative viability (VE-821 + AZD7762; first compound 8 µM) | relative viability (Ruxolitinib + Olaparib; first compound 0.08 µM) | relative viability (Ruxolitinib + Olaparib; first compound 0.253 µM) | relative viability (Ruxolitinib + Olaparib; first compound 0.8 µM) | relative viability (Ruxolitinib + Olaparib; first compound 2.53 µM) | relative viability (Ruxolitinib + Olaparib; first compound 8 µM)
1 | HCC-366 | 1.1 | 1.03 | 0.883 | 0.406 | 0.064 | 0.33 | 0.319 | 0.432 | 0.239 | 0.231 | 0.235 | 0.148 | 0.0505 | 0.056 | 0.0429 | 0.424 | 0.417 | 0.39 | 0.287 | 0.197
2 | HCC-827 | 0.221 | 0.201 | 0.189 | 0.201 | 0.209 | – | 0.545 | 0.563 | 0.469 | 0.784 | 0.178 | 0.194 | 0.169 | 0.18 | 0.189 | – | 0.469 | 0.469 | 0.49 | 0.594
3 | HOP-62 | 1.16 | 1.03 | 0.958 | 1.06 | 0.947 | 0.414 | 0.398 | 0.476 | 0.188 | 0.37 | 0.906 | 0.616 | 0.406 | 0.392 | 0.19 | – | 0.389 | 0.381 | 0.315 | 0.416
4 | IA-LM | 1.03 | 0.744 | 0.821 | 0.83 | 0.501 | – | – | – | – | – | – | – | – | – | – | 0.98 | 0.867 | 0.805 | 0.819 | 0.669
5 | LCLC-103H | – | – | – | – | – | 0.728 | 0.707 | 0.731 | 0.595 | 0.639 | 0.829 | 0.758 | 0.705 | 0.758 | 0.632 | 0.774 | 0.753 | 0.786 | 0.837 | 0.758
6 | NCI-H441 | – | – | – | – | – | 0.478 | 0.373 | 0.572 | 0.415 | 0.513 | 1.28 | 0.966 | 0.93 | 0.69 | 0.478 | 0.508 | 0.54 | 0.502 | 0.472 | 0.484
7 | NCI-H520 | 0.874 | 0.845 | – | 0.789 | 0.519 | 0.87 | 0.663 | 0.823 | 0.609 | 0.574 | – | – | – | – | – | 0.298 | 0.375 | 0.366 | 0.343 | 0.284
8 | NCI-H522 | – | – | – | – | – | 0.729 | 0.767 | 0.964 | 0.678 | 0.708 | 0.888 | 0.707 | 0.787 | 0.962 | 0.767 | 0.632 | 0.719 | 0.704 | 0.468 | 0.705
9 | NCI-H661 | 0.592 | 0.427 | 0.396 | 0.486 | 0.381 | 0.661 | 0.619 | 0.685 | 0.432 | 0.52 | – | – | – | – | – | 0.771 | 0.81 | 0.735 | 0.808 | 0.614
10 | NCI-H1299 | 0.948 | 0.885 | 0.915 | 0.913 | 0.771 | – | – | – | – | – | – | – | – | – | – | 0.939 | 0.998 | 0.963 | 0.985 | 0.757
11 | NCI-H1563 | 0.92 | 0.981 | 0.812 | 0.912 | 0.792 | – | – | – | – | – | – | – | – | – | – | – | – | – | – | –
12 | NCI-H1648 | – | – | – | – | – | 0.548 | 0.517 | 0.62 | 0.416 | 0.74 | 0.582 | – | 0.49 | 0.473 | 0.319 | 0.854 | 0.852 | 1.11 | 1.35 | 1.18
13 | NCI-H1650 | 0.845 | 0.749 | 0.705 | 0.757 | 0.45 | 0.331 | 0.597 | 0.628 | 0.27 | 0.541 | – | – | – | – | – | 0.689 | 0.784 | 0.879 | 0.836 | 0.751
14 | NCI-H1703 | 1.21 | 1 | 1.06 | 0.547 | 0.328 | – | – | – | – | – | 0.0991 | 0.11 | 0.14 | 0.119 | 0.1 | 0.44 | 0.439 | 0.55 | 0.237 | 0.315
15 | NCI-H2009 | 0.89 | 0.959 | 0.893 | 0.997 | 0.977 | 0.304 | 0.249 | 0.329 | 0.168 | 0.196 | – | – | – | – | – | 0.701 | 0.712 | 0.684 | 0.575 | 0.482
16 | NCI-H2023 | 0.918 | 0.878 | 0.713 | 0.477 | 0.202 | 0.57 | 0.524 | 0.654 | 0.4 | 0.565 | – | – | – | – | – | 0.483 | 0.604 | 0.509 | 0.515 | 0.339
17 | NCI-H2228 | 1.18 | 1.23 | 1.14 | 1.04 | 0.37 | 0.229 | 0.861 | 0.62 | 0.24 | 0.144 | – | – | – | – | – | 0.58 | 0.847 | 0.576 | 0.614 | 0.592
18 | NCI-H2342 | – | – | – | – | – | 0.762 | 0.872 | 0.808 | 0.807 | 0.816 | 0.494 | 0.642 | 0.426 | 0.388 | 0.384 | 0.46 | 0.533 | 0.413 | 0.498 | 0.398
19 | SK-LU-1 | 0.907 | 0.668 | 0.625 | 0.582 | 0.525 | 0.5 | 0.578 | 0.548 | 0.3 | 0.408 | – | – | – | – | – | 0.428 | 0.456 | 0.572 | 0.381 | 0.359
20 | SK-MES-1 | 0.483 | 0.467 | 0.437 | 0.446 | 0.397 | 0.561 | 0.596 | 0.587 | 0.315 | 0.516 | – | – | – | – | – | 0.766 | 0.639 | 0.713 | 0.563 | 0.597
21 | SW 900 | – | – | – | – | – | 0.597 | 0.742 | 1.09 | 0.614 | 0.902 | 0.673 | 0.506 | 0.391 | 0.437 | 0.351 | 0.805 | 0.944 | 0.955 | 1.05 | 0.91
22 | SW 1573 | 1.12 | 1.07 | 1.12 | 0.58 | 0.989 | 0.533 | 0.545 | 0.616 | 0.486 | 0.574 | – | – | – | – | – | 0.518 | 0.586 | 0.473 | 0.416 | 0.352
